The record followed here is US20240150369A1, “CYCLIN-DEPENDENT KINASE INHIBITING COMPOUNDS FOR THE TREATMENT OF MEDICAL DISORDERS” (G1 Therapeutics, Inc., priority 2020, published 2024).

Assay type in all cases: biochemical
One assay has as its target CDK6/Cyclin D3 (Homo sapiens (Human), UniProt Q00534). The assay is described as follows: CDK6/Cyclin D3 kinase assay (Nanosyn, Caliper microfluidic). The conditions noted are these: 12-point dose-response, singlicate, at Km for ATP; ATP 300 μM; 3 hr. Here is the method:
(§1) Selected compounds disclosed herein were tested in kinase assays by Nanosyn (Santa Clara, CA) to determine their inhibitory effect on these CDKs. The assays were performed using microfluidic kinase detection technology (Caliper Assay Platform). The compounds were tested in 12-point dose-response format in singlicate at Km for ATP. Specifics of each assay are as described below:
CDK6/Cyclin D3: Enzyme concentration: 2 nM; ATP concentration: 300 μM; Incubation time: 3 hr.

Another assay deals with CDK7 (Homo sapiens (Human), UniProt P50613). The assay is described as follows: CDK7 kinase assay (Nanosyn, Caliper microfluidic). The conditions noted are these: 12-point dose-response, singlicate, at Km for ATP. The procedure:
(§2) Selected compounds disclosed herein were tested in kinase assays by Nanosyn (Santa Clara, CA) to determine their inhibitory effect on these CDKs. The assays were performed using microfluidic kinase detection technology (Caliper Assay Platform). The compounds were tested in 12-point dose-response format in singlicate at Km for ATP.

Another assay addresses CDK2/Cyclin E (Homo sapiens (Human), UniProt P24941). Briefly: CDK2/Cyclin E kinase assay (Nanosyn, Caliper microfluidic). The conditions noted are these: 12-point dose-response, singlicate, at Km for ATP; ATP 100 μM; 3 hr. Here is the method: as §1
CDK2/Cyclin E: Enzyme concentration: 0.15 nM; ATP concentration: 100 μM; Incubation time: 3 hr.

The target of a further assay is CDK2/Cyclin A (Homo sapiens (Human), UniProt P24941). Briefly: CDK2/Cyclin A kinase assay (Nanosyn, Caliper microfluidic). The conditions noted are these: 12-point dose-response, singlicate, at Km for ATP; ATP 50 μM; 3 hr. Here is the method:
as §1
CDK2/Cyclin A: Enzyme concentration: 0.1 nM; ATP concentration: 50 μM; Incubation time: 3 hr.

The target in another assay is CDK1/Cyclin B1 (Homo sapiens (Human), UniProt P06493). The assay is described as follows: CDK1/Cyclin B1 kinase assay (Nanosyn, Caliper microfluidic). To be noted: 12-point dose-response, singlicate, at Km for ATP; ATP 40 μM; 3 hr. Here is the method:
as §1
CDK1/Cyclin B1: Enzyme concentration: 0.08 nM; ATP concentration: 40 μM; Incubation time: 3 hr.

The target of another assay is CDK9/Cyclin T1 (Homo sapiens (Human), UniProt P50750). The assay is described as follows: CDK9/Cyclin T1 kinase assay (Nanosyn, Caliper microfluidic). The conditions noted are these: 12-point dose-response, singlicate, at Km for ATP; ATP 10 μM; 17 hr. Here is the method:
as §1
CDK9/Cyclin T1: Enzyme concentration: 5 nM; ATP concentration: 10 μM; Incubation time: 17 hr.

A further assay concerns the target CDK3-CYCLIN-E (Homo sapiens (Human), UniProt Q00526). Briefly: CDK3-Cyclin-E kinase assay (Nanosyn, Caliper microfluidic). To be noted: 12-point dose-response, singlicate, at Km for ATP. Here is the method: as §2
Another assay addresses CDK4/Cyclin D1 (Homo sapiens (Human), UniProt P11802). The assay is described as follows: CDK4/Cyclin D1 kinase assay (Nanosyn, Caliper microfluidic). The conditions noted are these: 12-point dose-response, singlicate, at Km for ATP; ATP 200 μM; 3 hr. The procedure:
as §1
CDK4/Cyclin D1: Enzyme concentration: 1 nM; ATP concentration: 200 μM; Incubation time: 3 hr.

Chain of CDK9/Cyclin T1 (P50750 whole entry): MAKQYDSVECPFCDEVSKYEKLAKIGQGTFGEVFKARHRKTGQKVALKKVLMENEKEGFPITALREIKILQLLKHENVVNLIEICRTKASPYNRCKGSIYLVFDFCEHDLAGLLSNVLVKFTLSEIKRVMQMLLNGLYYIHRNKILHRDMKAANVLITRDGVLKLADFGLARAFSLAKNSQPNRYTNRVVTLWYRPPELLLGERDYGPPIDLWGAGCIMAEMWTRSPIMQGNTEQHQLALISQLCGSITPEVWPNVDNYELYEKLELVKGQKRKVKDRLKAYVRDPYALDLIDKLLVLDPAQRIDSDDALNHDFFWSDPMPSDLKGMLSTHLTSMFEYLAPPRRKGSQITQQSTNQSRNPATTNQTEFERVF
Chain of CDK9/Cyclin T1 (O60563 whole entry partner): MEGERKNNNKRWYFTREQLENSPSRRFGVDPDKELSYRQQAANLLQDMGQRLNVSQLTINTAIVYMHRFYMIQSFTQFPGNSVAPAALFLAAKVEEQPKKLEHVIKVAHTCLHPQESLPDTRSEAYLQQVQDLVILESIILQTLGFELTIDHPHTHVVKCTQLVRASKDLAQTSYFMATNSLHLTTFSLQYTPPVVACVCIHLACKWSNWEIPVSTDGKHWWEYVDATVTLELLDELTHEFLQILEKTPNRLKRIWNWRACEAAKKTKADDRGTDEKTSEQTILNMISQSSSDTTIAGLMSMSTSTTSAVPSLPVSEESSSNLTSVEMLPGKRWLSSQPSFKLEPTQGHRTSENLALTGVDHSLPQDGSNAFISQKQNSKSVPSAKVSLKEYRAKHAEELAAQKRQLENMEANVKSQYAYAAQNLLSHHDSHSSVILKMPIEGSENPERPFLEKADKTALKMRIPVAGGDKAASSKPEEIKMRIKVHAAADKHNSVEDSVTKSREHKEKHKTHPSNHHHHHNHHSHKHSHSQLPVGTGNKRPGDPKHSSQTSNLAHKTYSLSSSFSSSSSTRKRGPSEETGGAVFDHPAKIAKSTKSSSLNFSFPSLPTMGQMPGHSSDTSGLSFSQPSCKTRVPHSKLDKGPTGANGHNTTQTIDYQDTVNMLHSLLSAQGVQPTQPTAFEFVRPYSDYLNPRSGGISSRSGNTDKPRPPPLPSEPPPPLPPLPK
Chain of CDK6/Cyclin D3 (Q00534 whole entry): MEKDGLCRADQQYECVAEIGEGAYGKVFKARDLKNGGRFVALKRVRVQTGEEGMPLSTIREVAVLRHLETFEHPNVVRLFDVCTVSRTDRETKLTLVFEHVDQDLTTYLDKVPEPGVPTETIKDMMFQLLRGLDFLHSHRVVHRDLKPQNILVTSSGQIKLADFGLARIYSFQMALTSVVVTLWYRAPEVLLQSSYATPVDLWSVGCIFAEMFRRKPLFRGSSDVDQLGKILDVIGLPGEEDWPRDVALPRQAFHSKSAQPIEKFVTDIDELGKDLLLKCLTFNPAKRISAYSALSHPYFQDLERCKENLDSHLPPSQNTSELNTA
Chain of CDK6/Cyclin D3 (P30281 whole entry partner): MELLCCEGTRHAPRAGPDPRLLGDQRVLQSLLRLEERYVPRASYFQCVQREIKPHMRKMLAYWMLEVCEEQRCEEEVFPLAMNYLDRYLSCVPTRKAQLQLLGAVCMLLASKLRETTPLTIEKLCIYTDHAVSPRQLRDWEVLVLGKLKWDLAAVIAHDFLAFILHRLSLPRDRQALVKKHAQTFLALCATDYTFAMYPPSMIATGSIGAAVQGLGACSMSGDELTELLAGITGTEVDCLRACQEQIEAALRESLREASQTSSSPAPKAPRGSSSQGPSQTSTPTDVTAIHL
Chain of CDK1/Cyclin B1 (P06493 whole entry): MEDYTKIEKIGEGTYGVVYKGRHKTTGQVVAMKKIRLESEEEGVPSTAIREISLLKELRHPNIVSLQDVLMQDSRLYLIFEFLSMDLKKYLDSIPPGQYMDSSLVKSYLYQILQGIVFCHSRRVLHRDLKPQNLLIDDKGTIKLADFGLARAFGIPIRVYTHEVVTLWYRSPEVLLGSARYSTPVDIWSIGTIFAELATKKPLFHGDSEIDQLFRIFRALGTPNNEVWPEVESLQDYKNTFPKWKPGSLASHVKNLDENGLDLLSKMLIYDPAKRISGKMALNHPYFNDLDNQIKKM
Chain of CDK1/Cyclin B1 (P14635 whole entry partner): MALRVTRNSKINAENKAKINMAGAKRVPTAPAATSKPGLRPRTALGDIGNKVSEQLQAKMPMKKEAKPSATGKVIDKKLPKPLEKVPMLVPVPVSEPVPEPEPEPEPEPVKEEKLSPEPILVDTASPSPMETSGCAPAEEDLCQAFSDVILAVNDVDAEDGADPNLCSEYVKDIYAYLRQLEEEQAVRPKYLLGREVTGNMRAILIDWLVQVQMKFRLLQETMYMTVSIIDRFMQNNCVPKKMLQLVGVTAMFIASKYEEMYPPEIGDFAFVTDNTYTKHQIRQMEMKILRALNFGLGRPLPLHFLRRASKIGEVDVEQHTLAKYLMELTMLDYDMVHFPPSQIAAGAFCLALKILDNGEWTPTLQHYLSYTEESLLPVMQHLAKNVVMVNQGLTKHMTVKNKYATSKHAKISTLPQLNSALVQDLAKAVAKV
Chain of CDK7 (P50613 whole entry): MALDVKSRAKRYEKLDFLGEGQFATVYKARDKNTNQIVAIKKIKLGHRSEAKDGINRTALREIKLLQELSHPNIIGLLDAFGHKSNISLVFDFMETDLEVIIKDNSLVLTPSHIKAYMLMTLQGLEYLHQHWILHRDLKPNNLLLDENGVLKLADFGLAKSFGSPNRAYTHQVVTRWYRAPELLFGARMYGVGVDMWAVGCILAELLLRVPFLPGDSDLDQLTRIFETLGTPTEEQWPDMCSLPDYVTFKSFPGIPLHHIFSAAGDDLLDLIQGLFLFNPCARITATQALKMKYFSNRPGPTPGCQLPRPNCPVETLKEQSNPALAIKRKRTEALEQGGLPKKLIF
Chain of CDK7 (P51946 whole entry partner): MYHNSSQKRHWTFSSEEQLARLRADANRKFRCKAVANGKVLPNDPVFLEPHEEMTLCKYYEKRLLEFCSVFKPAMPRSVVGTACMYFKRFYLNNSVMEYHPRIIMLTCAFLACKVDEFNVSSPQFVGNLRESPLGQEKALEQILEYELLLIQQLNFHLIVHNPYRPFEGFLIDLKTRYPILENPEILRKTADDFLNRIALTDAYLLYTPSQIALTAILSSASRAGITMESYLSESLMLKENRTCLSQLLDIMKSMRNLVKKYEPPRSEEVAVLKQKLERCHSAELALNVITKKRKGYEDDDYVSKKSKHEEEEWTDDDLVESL
Chain of CDK7 (P51948 whole entry partner): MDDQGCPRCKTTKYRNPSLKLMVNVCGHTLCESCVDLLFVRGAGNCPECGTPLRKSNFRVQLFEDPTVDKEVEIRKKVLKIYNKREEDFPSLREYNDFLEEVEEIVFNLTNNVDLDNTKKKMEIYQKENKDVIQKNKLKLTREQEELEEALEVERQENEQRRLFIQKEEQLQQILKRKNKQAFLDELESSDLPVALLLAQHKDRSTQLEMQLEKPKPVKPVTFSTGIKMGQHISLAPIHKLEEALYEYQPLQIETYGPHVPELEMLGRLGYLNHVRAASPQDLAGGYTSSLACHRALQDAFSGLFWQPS
Chain of CDK4/Cyclin D1 (P11802 whole entry): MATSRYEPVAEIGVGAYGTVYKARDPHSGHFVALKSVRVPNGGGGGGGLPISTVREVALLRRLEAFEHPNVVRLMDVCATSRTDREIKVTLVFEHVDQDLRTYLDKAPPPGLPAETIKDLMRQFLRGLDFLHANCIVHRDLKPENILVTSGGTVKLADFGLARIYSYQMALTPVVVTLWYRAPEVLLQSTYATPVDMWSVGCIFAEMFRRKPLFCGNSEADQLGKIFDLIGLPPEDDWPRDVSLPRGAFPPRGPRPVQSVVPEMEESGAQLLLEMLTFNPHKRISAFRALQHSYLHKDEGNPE
Chain of CDK4/Cyclin D1 (P24385 whole entry partner): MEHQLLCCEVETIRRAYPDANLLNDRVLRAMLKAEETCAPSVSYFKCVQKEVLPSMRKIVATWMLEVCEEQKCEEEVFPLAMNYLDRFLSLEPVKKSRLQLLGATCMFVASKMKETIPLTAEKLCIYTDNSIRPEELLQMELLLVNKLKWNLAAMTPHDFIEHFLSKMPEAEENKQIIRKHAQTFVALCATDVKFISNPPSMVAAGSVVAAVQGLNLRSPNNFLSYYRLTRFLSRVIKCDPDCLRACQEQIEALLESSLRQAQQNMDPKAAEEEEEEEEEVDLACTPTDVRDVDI

A word on the IC50: it is the concentration that inhibits the measured activity by half. Lower therefore signals greater potency. As for `NS(=O)(=O)c1ccc(Nc2ncc3cc4n(c3n2)C2(C=NN4)CCCCC2)cc1` [Compound 4, 4-((1′H-spiro[cyclohexane-1,4′-pyrimido[5′,4′:4,5]pyrrolo[2,1-c][1,2,4]triazin]-7′-yl)amino)benzenesulfonamide], the IC50 against CDK6/Cyclin D3 came out at 170 nM; against CDK7, 230 nM; at CDK2/Cyclin E, 1 nM; against CDK2/Cyclin A, 1 nM; on CDK1/Cyclin B1 it was 89 nM; on CDK9/Cyclin T1, 11 nM. The IC50 against CDK3-CYCLIN-E was found to be 5 nM; at CDK4/Cyclin D1, 53 nM.

As for `CN1N=CC2(CCCCC2)n2c1cc1cnc(Nc3ccc(S(N)(=O)=O)cc3)nc12` [Compound 5, 4-((1′-methyl-1′H-spiro[cyclohexane-1,4′-pyrimido[5′,4′:4,5]pyrrolo[2,1-c][1,2,4]triazin]-7′-yl)amino)benzenesulfonamide], the IC50 against CDK6/Cyclin D3 amounted to 231 nM; against CDK7, 875 nM; against CDK2/Cyclin E, 3 nM; on CDK2/Cyclin A it was 2 nM; against CDK1/Cyclin B1, 11 nM; against CDK9/Cyclin T1, 26 nM. For the same compound, the IC50 at CDK3-CYCLIN-E was determined as 23 nM; on CDK4/Cyclin D1, 41 nM.

`NS(=O)(=O)c1ccc(Nc2ncc3cc4n(c3n2)C2(CCCCC2)C(=O)N[C@@H]4CF)cc1` [Compound 23, (S)-4-((6′-(fluoromethyl)-8′-oxo-7′,8′-dihydro-6′H-spiro[cyclohexane-1,9′-pyrazino[1′2′:1,5]pyrrolo[2,3-d]pyrimidin]-2′-yl)amino)benzenesulfonamide]: the IC50 against CDK6/Cyclin D3 amounted to 45 nM; at CDK7, 682 nM; on CDK2/Cyclin E, 1 nM; on CDK2/Cyclin A it was 1 nM; on CDK1/Cyclin B1, 20 nM; against CDK9/Cyclin T1, 11 nM. In addition, the IC50 at CDK3-CYCLIN-E worked out at 6 nM; against CDK4/Cyclin D1 it was 19 nM.

In the case of `CC1C(=O)Nc2cc3cnc(Nc4ccc(S(N)(=O)=O)cc4)nc3n2C12CCCCC2` (stereo not drawn) [Compound 42, 4-((8′-methyl-7′-oxo-7′,8′-dihydro-6′H-spiro[cyclohexane-1,9′-pyrrolo[1,5-a:2,3-d′]dipyrimidin]-2′-yl)amino)benzenesulfonamide], the IC50 against CDK2/Cyclin E was 1 nM; against CDK2/Cyclin A, 1 nM; against CDK1/Cyclin B1 it was 7 nM; on CDK9/Cyclin T1, 6 nM; against CDK3-CYCLIN-E, 10 nM.

In the case of `CC1C(=O)N(C)c2cc3cnc(Nc4ccc(S(N)(=O)=O)cc4)nc3n2C12CCCCC2` (stereo not drawn) [Compound 43, 4-((6′,8′-dimethyl-7′-oxo-7′,8′-dihydro-6′H-spiro[cyclohexane-1,9′-pyrrolo[1,5-a:2,3-d′]dipyrimidin]-2′-yl)amino)benzenesulfonamide], the IC50 was 4 nM at CDK2/Cyclin E; 4 nM against CDK2/Cyclin A; 33 nM at CDK1/Cyclin B1; 21 nM against CDK9/Cyclin T1; 29 nM on CDK3-CYCLIN-E.

For the compound `CC1=NNc2cc3cnc(Nc4ccc(S(N)(=O)=O)cc4)nc3n2C12CCCCC2` [Compound 45, 4-((3′-methyl-1′H-spiro[cyclohexane-1,4′-pyrimido[5′,4′:4,5]pyrrolo[2,1-c][1,2,4]triazin]-7′-yl)amino)benzenesulfonamide], the IC50 against CDK6/Cyclin D3 is above 1000 nM; against CDK7 it was above 1000 nM; at CDK2/Cyclin E, 19 nM; against CDK2/Cyclin A, 16 nM; at CDK1/Cyclin B1 it was 108 nM; on CDK9/Cyclin T1 it was 240 nM. The half-maximal inhibitory concentration (IC50) was determined as 73 nM against CDK3-CYCLIN-E and 436 nM at CDK4/Cyclin D1.

`CC1=NN(C)c2cc3cnc(Nc4ccc(S(N)(=O)=O)cc4)nc3n2C12CCCCC2` [Compound 46, 4-((1′,3′-dimethyl-1′H-spiro[cyclohexane-1,4′-pyrimido[5′,4′:4,5]pyrrolo[2,1-c][1,2,4]triazin]-7′-yl)amino)benzenesulfonamide]: the IC50 on CDK6/Cyclin D3 stood at 83 nM; at CDK7 it was 723 nM; on CDK2/Cyclin E it was 2 nM; at CDK2/Cyclin A it was 2 nM; on CDK1/Cyclin B1 it was 14 nM; against CDK9/Cyclin T1 it was 9 nM. Also, the results for the IC50 against CDK3-CYCLIN-E and at CDK4/Cyclin D1 were 13 nM and 22 nM, respectively.

Turning to `CN1CCN(S(=O)(=O)c2ccc(Nc3ncc4cc5n(c4n3)C3(CCCCC3)C(=O)NN5)cc2)CC1` [Compound 49, 7′-((4-((4-methylpiperazin-1-yl)sulfonyl)phenyl)amino)-1′,2′-dihydro-3′H-spiro[cyclohexane-1,4′-pyrimido[5′,4′:4,5]pyrrolo[2,1-c][1,2,4]triazin]-3′-one], the IC50 against CDK6/Cyclin D3 came out at 480 nM; against CDK7, 242 nM; against CDK2/Cyclin E, 10 nM; at CDK2/Cyclin A, 45 nM; against CDK1/Cyclin B1, 478 nM; against CDK9/Cyclin T1 it was 199 nM. Further, the 50% inhibitory concentration (IC50) came out at 115 nM against CDK3-CYCLIN-E and 253 nM on CDK4/Cyclin D1.

As to `CN1CCN(S(=O)(=O)c2ccc(Nc3ncc4cc5n(c4n3)C3(CCCCC3)C(=O)NC5O)cc2)CC1` (stereo not drawn) [Compound 50, 6′-hydroxy-2′-((4-((4-methylpiperazin-1-yl)sulfonyl)phenyl)amino)-6′,7′-dihydro-8′H-spiro[cyclohexane-1,9′-pyrazino[1′,2′:1,5]pyrrolo[2,3-d]pyrimidin]-8′-one], the IC50 stood at 51 nM at CDK6/Cyclin D3; 118 nM on CDK7; 4 nM on CDK2/Cyclin E; 2 nM against CDK2/Cyclin A; 78 nM on CDK1/Cyclin B1; 2 nM on CDK9/Cyclin T1. The IC50 on CDK3-CYCLIN-E was found to be 28 nM; against CDK4/Cyclin D1, 113 nM.

`CNC(=O)Nc1ccc(Nc2ncc3cc4n(c3n2)C2(CCCCC2)C(=O)NN4)cc1` [Compound 68, 1-methyl-3-(4-((3′-oxo-2′,3′-dihydro-1′H-spiro[cyclohexane-1,4′-pyrimido[5′,4′:4,5]pyrrolo[2,1-c][1,2,4]triazin]-7′-yl)amino)phenyl)urea]: the IC50 on CDK6/Cyclin D3 is above 1000 nM; on CDK2/Cyclin E it was 349 nM; against CDK2/Cyclin A, 841 nM; on CDK1/Cyclin B1, above 1000 nM; against CDK9/Cyclin T1, 284 nM; against CDK4/Cyclin D1, 595 nM.

Turning to `CC1C(=O)Nc2cc3cnc(Nc4ccc(C(=O)N5CCN(C)CC5)cc4)nc3n2C12CCCCC2` (stereo not drawn) [Compound 71, 8′-methyl-2′-((4-(4-methylpiperazine-1-carbonyl)phenyl)amino)-6′H-spiro[cyclohexane-1,9′-pyrrolo[1,5-a:2,3-d′]dipyrimidin]-7′(8′H)-one], the half-inhibitory concentration (IC50) against CDK6/Cyclin D3 is 15 nM; at CDK2/Cyclin E it was 3 nM; at CDK2/Cyclin A it was 4 nM; at CDK1/Cyclin B1, 15 nM; against CDK9/Cyclin T1, 9 nM; on CDK4/Cyclin D1, 9 nM.

Take `CS(=N)(=O)c1ccc(Nc2ncc3cc4n(c3n2)C2(CCCCC2)C(=O)NN4)cc1` (stereo not drawn) [Compound 79, 7′-((4-(S-methylsulfonimidoyl)phenyl)amino)-1′,2′-dihydro-3′H-spiro[cyclohexane-1,4′-pyrimido[5′,4′:4,5]pyrrolo[2,1-c][1,2,4]triazin]-3′-one]: the IC50 on CDK6/Cyclin D3 is 291 nM; at CDK2/Cyclin E, 5 nM; on CDK2/Cyclin A, 16 nM; on CDK1/Cyclin B1, 146 nM; on CDK9/Cyclin T1, 89 nM; against CDK4/Cyclin D1 it was 172 nM.

Consider `Nc1ccc(S(=O)(=O)Nc2ncc3cc4n(c3n2)C2(CCCCC2)C(=O)NN4)cc1` [Compound 84, 4-amino-N-(3′-oxo-2′,3′-dihydro-1′H-spiro[cyclohexane-1,4′-pyrimido[5′,4′:4,5]pyrrolo[2,1-c][1,2,4]triazin]-7′-yl)benzenesulfonamide], for which the IC50 against CDK6/Cyclin D3 was above 1000 nM; against CDK2/Cyclin E, 207 nM; on CDK2/Cyclin A, 571 nM; on CDK1/Cyclin B1 it was above 1000 nM; against CDK9/Cyclin T1, above 1000 nM; against CDK4/Cyclin D1, above 1000 nM.

Regarding `Nc1ccc(S(=O)(=O)Nc2ncc3cc4n(c3n2)C2(CCCCC2)CNC4=O)cc1` [Compound 91, 4-amino-N-(6′-oxo-7′,8′-dihydro-6′H-spiro[cyclohexane-1,9′-pyrazino[1′,2′:1,5]pyrrolo[2,3-d]pyrimidin]-2′-yl)benzenesulfonamide], the IC50 on CDK6/Cyclin D3 was 920 nM; against CDK2/Cyclin E, 287 nM; at CDK2/Cyclin A it was 322 nM; on CDK1/Cyclin B1 it was above 1000 nM; at CDK9/Cyclin T1, 183 nM; on CDK4/Cyclin D1 it was 361 nM.
